Measurements published in patent publication US11718622B2, “Heterocyclic adenosine receptor antagonists” (Exelixis, Inc., priority 2020, dated 2023).

How the values were obtained:
[1] = molecular target: Adenosine A2a (ADORA2A) receptor (Homo sapiens (Human), UniProt P29274); assay: ADORA2A Receptor Binding Assay; settings: radioligand binding, membrane stock
In short: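 Test compounds incubated with A2a receptor membranes and a ³H-labelled radioligand for 2 hours at room temperature, then filtered through PEI-presoaked GF/C plates and washed. Filter-bound ³H counted by scintillation; % inhibition calculated from background-subtracted signal relative to high control.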

[2] = molecular target: Adenosine A2B (ADORA2B) receptor (Homo sapiens (Human), UniProt P29275); assay: ADORA2B Receptor Binding Assay; settings: radioligand binding, membrane stock
In short: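 Radioligand competition binding on human A2B receptor membranes, 1 h at room temperature, then filtration through BSA-presoaked GF/C filters and ³H counting by scintillation. Inhibition expressed as % of high control after background subtraction.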

Sequence of Adenosine A2a (ADORA2A) receptor (P29274 whole entry): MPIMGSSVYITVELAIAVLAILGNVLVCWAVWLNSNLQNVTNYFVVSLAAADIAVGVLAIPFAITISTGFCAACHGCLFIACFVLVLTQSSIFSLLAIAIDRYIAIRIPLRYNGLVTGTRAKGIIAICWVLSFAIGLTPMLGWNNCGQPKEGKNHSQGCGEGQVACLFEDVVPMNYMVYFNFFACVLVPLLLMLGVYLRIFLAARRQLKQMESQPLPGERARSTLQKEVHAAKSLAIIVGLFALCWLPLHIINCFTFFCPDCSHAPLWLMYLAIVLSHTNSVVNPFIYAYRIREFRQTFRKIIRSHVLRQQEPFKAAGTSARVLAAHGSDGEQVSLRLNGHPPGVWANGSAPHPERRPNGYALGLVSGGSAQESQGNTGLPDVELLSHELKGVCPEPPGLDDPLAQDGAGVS
Sequence of Adenosine A2B (ADORA2B) receptor (P29275 whole entry): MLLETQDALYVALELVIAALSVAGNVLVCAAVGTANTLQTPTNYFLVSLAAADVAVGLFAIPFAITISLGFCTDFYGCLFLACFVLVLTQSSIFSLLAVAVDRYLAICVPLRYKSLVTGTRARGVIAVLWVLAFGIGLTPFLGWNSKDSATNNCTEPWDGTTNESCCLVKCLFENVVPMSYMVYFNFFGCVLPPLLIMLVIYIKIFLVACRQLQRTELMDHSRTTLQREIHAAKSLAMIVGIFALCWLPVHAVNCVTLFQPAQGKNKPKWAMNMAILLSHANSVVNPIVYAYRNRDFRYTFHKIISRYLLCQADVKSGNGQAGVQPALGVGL

| IC50 [1] | IC50 [2] | SMILES |
| --- | --- | --- |
| > 1000 nM | > 1000 nM | Cc1nc2cc(NC(=O)C3CC3)nc(-c3ccc(S(C)(=O)=O)cc3)n2n1 [Compound 99, A-[2-methyl-5-(4-methylsulfonylphenyl)-[1,2,4]triazolo[1,5-c]pyrimidin-7-yl]cyclopropanecarboxamide] |
| < 10 nM | < 10 nM | Cc1cc2c(nc(-c3ccco3)n3nc(C(F)(F)F)nc23)[nH]1 [Compound 82, 7-(furan-2-yl)-11-methyl-4-(trifluoromethyl)-3,5,6,8,10-pentazatricyclo[7.3.0.0^2,6]dodeca-1(9),2,4,7,11-pentaene] |
| < 10 nM | < 10 nM | CC(=O)Nc1cn2nc(C)nc2c(-c2ccc(C)o2)n1 [Compound 174, N-[2-methyl-8-(5-methylfuran-2-yl)-[1,2,4]triazolo[1,5-a]pyrazin-6-yl]acetamide] |
| < 10 nM | < 10 nM | Nc1nc(-c2ccccc2)c2nc(C(F)(F)F)nn2c1Cl [Compound 178, 5-chloro-8-phenyl-2-(trifluoromethyl)-[1,2,4]triazolo[1,5-a]pyrazin-6-amine] |
| < 10 nM | 10 to 100 nM | Nc1nc(-c2ccccc2)n2nc(C(F)(F)F)nc2c1Cl [Compound 87, 8-chloro-5-phenyl-2-(trifluoromethyl)-[1,2,4]triazolo[1,5-c]pyrimidin-7-amine] |
| < 10 nM | < 10 nM | CC(=O)Nc1cc2nc(C(F)F)nn2c(-c2ccco2)n1 [Compound 133, N-[2-(difluoromethyl)-5-(furan-2-yl)-[1,2,4]triazolo[1,5-c]pyrimidin-7-yl]acetamide] |
| 10 to 100 nM | 100 to 1000 nM | Cc1nc2cc(NC(=O)C3CC3)nc(-c3ccc(F)c(F)c3)n2n1 [Compound 128, N-[5-(3,4-difluorophenyl)-2-methyl-[1,2,4]triazolo[1,5-c]pyrimidin-7-yl]cyclopropanecarboxamide] |
| < 10 nM | < 10 nM | Cc1ccc(-c2nc(NC(=O)C3CC3)cc3nc(C(F)(F)F)nn23)o1 [Compound 20, N-[5-(5-methylfuran-2-yl)-2-(trifluoromethyl)-[1,2,4]triazolo[1,5-c]pyrimidin-7-yl]cyclopropanecarboxamide] |
| < 10 nM | 10 to 100 nM | Cc1nc2cc(NC(=O)C3COC3)nc(-c3ccc(C)o3)n2n1 [Compound 60, N-[2-methyl-5-(5-methylfuran-2-yl)-[1,2,4]triazolo[1,5-c]pyrimidin-7-yl]oxetane-3-carboxamide] |
| < 10 nM | 10 to 100 nM | CC(=O)Nc1cc2nc(C3CCCC3)nn2c(-c2ccc(C)o2)n1 [Compound 65, N-[2-cyclopentyl-5-(5-methylfuran-2-yl)-[1,2,4]triazolo[1,5-c]pyrimidin-7-yl]acetamide] |
| < 10 nM | 10 to 100 nM | Cc1nc2c(-c3ccc(C)o3)nc(N)cn2n1 [Compound 168, 2-methyl-8-(5-methylfuran-2-yl)-[1,2,4]triazolo[1,5-a]pyrazin-6-amine] |
